US4605744A, “Imidazole derivatives” (Hoffmann-La Roche Inc., priority 1985, dated 1986)
Where a name gives a salt, the structure may show the parent alone. Read-outs that look alike come from different tables or passages of the source.

Legend:
Test in all cases: In vitro antibacterial activity (MIC)
Format in all cases: cell-based
S. marcescens S2 = settings: S. marcescens S2
Summary of the method: (§1)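 Twofold-style dilution series (128 to 0.008 μg/ml) made in Mueller-Hinton broth, dispensed, then inoculated with 1.5 μl of a 10^-2 overnight-culture dilution. Plates sealed, held overnight at 37° C, inspected with a viewer.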

S. typhi P58A = test system: S. typhi P58A
Summary of the method: as §1

S. aureus Giorgio = test system: S. aureus Giorgio
Summary of the method: as §1

K. pneumoniae 35 = settings: K. pneumoniae 35
Summary of the method: as §1

K. pneumoniae 8357 = test system: K. pneumoniae 8357
Summary of the method: as §1

S. pyogenes 503-782 = settings: S. pyogenes 503-782
Summary of the method: as §1

P. aeruginosa B = test system: P. aeruginosa B
Summary of the method: as §1

S. marcescens 5805 = test system: S. marcescens 5805
Summary of the method: as §1

E. cloacae 6951 = test system: E. cloacae 6951
Summary of the method: as §1

C. freundii 8ASM = settings: C. freundii 8ASM
Summary of the method: as §1

S. marcescens SM = test system: S. marcescens SM
Summary of the method: as §1

E. cloacae 9570A = test system: E. cloacae 9570A
Summary of the method: as §1

P. mirabilis 2 = test system: P. mirabilis 2
Summary of the method: as §1

S. marcescens S147 = settings: S. marcescens S147
Summary of the method: as §1

K. pneumoniae 5096 = settings: K. pneumoniae 5096
Summary of the method: as §1

P. vulgaris 100 = settings: P. vulgaris 100
Summary of the method: as §1

P. aeruginosa 5712 = settings: P. aeruginosa 5712
Summary of the method: as §1

P. rettgeri ATCC 9250 = test system: P. rettgeri ATCC 9250
Summary of the method: as §1

C. freundii CDC6 = test system: C. freundii CDC6
Summary of the method: as §1

E. aerogenes 503-478 = test system: E. aerogenes 503-478
Summary of the method: as §1

K. pneumoniae HE7 = settings: K. pneumoniae HE7
Summary of the method: as §1

P. aeruginosa 5700 = test system: P. aeruginosa 5700
Summary of the method: as §1

P. aeruginosa POW 151 = settings: Pseudomonas aeruginosa, POW151
Summary of the method: as §1

E. cloacae 9295 = test system: E. cloacae 9295
Summary of the method: as §1

K. pneumoniae 503-964 = settings: K. pneumoniae 503-964
Summary of the method: as §1

S. marcescens S5 = test system: S. marcescens S5
Summary of the method: as §1

S. marcescens S3 = settings: S. marcescens S3
Summary of the method: as §1

E. cloacae 214 = test system: E. cloacae 214
Summary of the method: as §1

P. mirabilis 620A = settings: P. mirabilis 620A
Summary of the method: as §1

E. coli 48 = test system: E. coli 48
Summary of the method: as §1

K. pneumoniae 503-994 = test system: K. pneumoniae 503-994
Summary of the method: as §1

S. pneumoniae 6301 = test system: S. pneumoniae 6301
Summary of the method: as §1

C. diversus CDC 1663-72 = settings: C. diversus CDC 1663-72
Summary of the method: as §1

S. faecalis C1 = settings: S. faecalis C1
Summary of the method: as §1

E. cloacae 5699 = test system: E. cloacae 5699
Summary of the method: as §1

E. coli R-563 = test system: E. coli R-563
Summary of the method: as §1

E. coli 5152 = test system: E. coli 5152
Summary of the method: as §1

P. vulgaris ATCC 6380 = test system: P. vulgaris ATCC 6380
Summary of the method: as §1

S. aureus Smith = settings: S. aureus Smith
Summary of the method: as §1

P. aeruginosa Stone 130 = test system: P. aeruginosa Stone 130
Summary of the method: as §1

S. pneumoniae 6302 = test system: S. pneumoniae 6302
Summary of the method: as §1

S. pneumoniae SC = test system: S. pneumoniae SC
Summary of the method: as §1

E. cloacae P99 = test system: E. cloacae P99
Summary of the method: as §1

P. aeruginosa 503-56 = settings: P. aeruginosa 503-56
Summary of the method: as §1

P. aeruginosa 6148B = test system: P. aeruginosa 6148B
Summary of the method: as §1

[1] = Serratia marcescens, read-out: MIC
[2] = Klebsiella pneumoniae, read-out: MIC
[3] = Klebsiella pneumoniae, 8357, K. pneumoniae 8357, read-out: MIC
[4] = Pseudomonas aeruginosa, read-out: MIC
[5] = Serratia marcescens, 5805, S. marcescens 5805, read-out: MIC
[6] = Enterobacter cloacae, 6951, E. cloacae 6951, read-out: MIC
[7] = Citrobacter freundii, 8ASM, read-out: MIC
[8] = Enterobacter cloacae, read-out: MIC
[9] = Proteus mirabilis, 2, P. mirabilis 2, read-out: MIC
[10] = Proteus vulgaris, read-out: MIC
[11] = Providencia rettgeri, ATCC9250, P. rettgeri ATCC 9250, read-out: MIC
[12] = Citrobacter freundii, CDC6, C. freundii CDC6, read-out: MIC
[13] = Klebsiella aerogenes, 503478, E. aerogenes 503-478, read-out: MIC
[14] = Enterobacter cloacae, 9295, E. cloacae 9295, read-out: MIC
[15] = Klebsiella pneumoniae, 503964, read-out: MIC
[16] = Serratia marcescens, S5, S. marcescens S5, read-out: MIC
[17] = Enterobacter cloacae, 214, E. cloacae 214, read-out: MIC
[18] = Proteus mirabilis, 620A, read-out: MIC
[19] = Escherichia coli, 48, E. coli 48, read-out: MIC
[20] = Klebsiella pneumoniae, 503994, K. pneumoniae 503-994, read-out: MIC
[21] = Citrobacter koseri, CDC166372, read-out: MIC
[22] = Enterobacter cloacae, 5699, E. cloacae 5699, read-out: MIC
[23] = Escherichia coli, R563, E. coli R-563, read-out: MIC
[24] = Proteus vulgaris, ATCC6380, P. vulgaris ATCC 6380, read-out: MIC

Measured: MIC

CC1(C)S[C@@H]2[C@H](N=CN3CCC(CCn4ccnc4)CC3)C(=O)N2[C@H]1C(=O)O [B, [2S-2alpha,5alpha,6beta)]-6-[[[4-[2-(1H-imidazol-1-yl)ethyl]-1-piperidinyl]methylene]amino]-3,3-dimethyl-7-oxo-4-thia-1-azabicyclo[3.2.0]heptane-2-carboxylic acid hydrate hydrochloride]
8 µg/mL: S. pyogenes 503-782; Streptococcus pyogenes, 503782, read-out: MIC | P. vulgaris 100; [10] | E. coli R-563; [23]
0.062 µg/mL: S. typhi P58A; Salmonella enterica, TYPHI | C. freundii 8ASM; [7]
0.5 µg/mL: S. marcescens S2; [1] | E. cloacae 9570A; [8] | S. marcescens S147; [1] | P. rettgeri ATCC 9250; [11] | E. cloacae 9295; [14] | S. marcescens S3; [1] | E. cloacae 5699; [22] | P. vulgaris ATCC 6380; [24]
32 µg/mL: S. aureus Giorgio; Staphylococcus aureus
1 µg/mL: K. pneumoniae 35; [2] | S. marcescens 5805; [5] | P. mirabilis 2; [9] | E. cloacae 214; [17]
> 128 µg/mL: P. aeruginosa B; [4] | P. aeruginosa 5712; [4] | K. pneumoniae HE7; [2] | P. aeruginosa 5700; Pseudomonas aeruginosa, 5700, P. aeruginosa 5700, read-out: MIC | P. aeruginosa POW 151 | P. mirabilis 620A; [18] | S. faecalis C1; Enterococcus faecalis, read-out: MIC
16 µg/mL: E. cloacae 6951; [6] | E. coli 5152; Escherichia coli, 5152
4 µg/mL: S. pneumoniae 6301; Streptococcus pneumoniae, 6301
0.25 µg/mL: K. pneumoniae 8357; [3] | S. marcescens SM; [1] | K. pneumoniae 5096; [2] | C. freundii CDC6; [12] | K. pneumoniae 503-964; [15] | E. coli 48; [19] | K. pneumoniae 503-994; [20] | C. diversus CDC 1663-72; [21]
2 µg/mL: E. aerogenes 503-478; [13] | S. marcescens S5; [16]

CC1(C)S[C@@H]2[C@H](N=CN3CCCC(CCn4ccnc4)CC3)C(=O)N2[C@H]1C(=O)O.Cl.O (single isomer, unassigned) [D]
64 µg/mL: P. mirabilis 620A
2 µg/mL: S. marcescens 5805; S. marcescens 5805 | S. marcescens S5; S. marcescens S5
0.125 µg/mL: S. typhi P58A | S. marcescens S147 | E. cloacae P99; E. cloacae P99 | E. coli 48; E. coli 48 | K. pneumoniae 503-994; K. pneumoniae 503-994 | C. diversus CDC 1663-72 | E. coli R-563; E. coli R-563 | P. vulgaris ATCC 6380; P. vulgaris ATCC 6380
0.062 µg/mL: C. freundii 8ASM
> 128 µg/mL: S. pyogenes 503-782 | P. aeruginosa Stone 130 | K. pneumoniae 5096 | P. aeruginosa 5712 | K. pneumoniae HE7 | P. aeruginosa 503-56 | P. aeruginosa 6148B | S. faecalis C1
4 µg/mL: S. pneumoniae SC | S. pneumoniae 6301; S. pneumoniae 6301
32 µg/mL: S. aureus Smith
0.25 µg/mL: K. pneumoniae 35 | K. pneumoniae 8357; K. pneumoniae 8357 | P. aeruginosa B | S. marcescens SM | C. freundii CDC6; C. freundii CDC6 | K. pneumoniae 503-964 | E. cloacae 214; E. cloacae 214
16 µg/mL: S. aureus Giorgio; S. aureus Giorgio | E. cloacae 6951; E. cloacae 6951 | P. vulgaris 100 | E. coli 5152; E. coli 5152
8 µg/mL: S. pneumoniae 6302; S. pneumoniae 6302 | E. aerogenes 503-478; E. aerogenes 503-478
0.5 µg/mL: S. marcescens S2 | E. cloacae 9570A | P. mirabilis 2; P. mirabilis 2 | P. rettgeri ATCC 9250; P. rettgeri ATCC 9250 | P. aeruginosa 5700; P. aeruginosa 5700 | E. cloacae 9295; E. cloacae 9295 | S. marcescens S3 | E. cloacae 5699; E. cloacae 5699

CC1(C)S[C@@H]2[C@H](N=CN3CCC(Cc4ncc[nH]4)CC3)C(=O)N2[C@H]1C(=O)O [Q, [2S-(2alpha,5alpha,6beta)]-6-[[[4-(1H-imidazol-2-yl-methyl)-1-piperidinyl]methylene]amino]-3,3-dimethyl-7-oxo-4-thia-1-azabicyclo[3.2.0]heptane-2-carboxylic acid hydrochloride]
> 128 µg/mL: P. aeruginosa Stone 130; Pseudomonas aeruginosa, STONE130, read-out: MIC | K. pneumoniae HE7; [2] | P. aeruginosa POW 151 | P. mirabilis 620A; [18]
0.125 µg/mL: S. marcescens S2; [1] | S. marcescens SM; [1] | E. cloacae 9570A; [8] | S. marcescens S147; [1] | S. marcescens S3; [1]
8 µg/mL: S. typhi P58A; Salmonella enterica, TYPHI | S. aureus Giorgio; Staphylococcus aureus, S. aureus Giorgio, read-out: MIC | S. aureus Smith; Staphylococcus aureus, read-out: MIC | P. mirabilis 2; [9] | E. cloacae P99; Enterobacter cloacae, P99, E. cloacae P99 | E. coli 48; [19] | K. pneumoniae 503-994; [20]
16 µg/mL: E. cloacae 6951; [6] | P. rettgeri ATCC 9250; [11] | E. aerogenes 503-478; [13]
4 µg/mL: K. pneumoniae 8357; [3] | E. cloacae 9295; [14] | E. cloacae 5699; [22]
0.5 µg/mL: K. pneumoniae 503-964; [15] | S. marcescens S5; [16] | E. cloacae 214; [17]
0.062 µg/mL: C. freundii 8ASM; [7] | C. diversus CDC 1663-72; [21] | E. coli R-563; [23]
0.25 µg/mL: K. pneumoniae 35; [2]
2 µg/mL: S. pneumoniae 6302; Streptococcus pneumoniae, 6302, S. pneumoniae 6302, read-out: MIC
64 µg/mL: C. freundii CDC6; [12] | E. coli 5152; Escherichia coli, 5152, E. coli 5152, read-out: MIC
128 µg/mL: K. pneumoniae 5096; [2]
1 µg/mL: S. marcescens 5805; [5] | P. vulgaris 100; [10]
0.016 µg/mL: P. vulgaris ATCC 6380; [24]
